From patent publication US20240131028A1, “CHEMOVACCINATION AGAINST PLASMODIUM INFECTION WITH SELECTIVE PLASMEPSIN X INHIBITORS” (Merck Sharp & Dohme LLC, priority 2021, published 2024)
Like-named read-outs stand apart in the source and are kept apart here.

Tested on: ring stage parasites (Pf)
Experiment: Parasite lactate dehydrogenase (LDH) growth assay (Parasite Assay, PfLDH Assay)
Type: cell-based, P. falciparum
Settings: 72 hours growth, LDH readout
Procedure: The parasite stock was maintained at 4% haematocrit in RPMI-Hepes media buffered with sodium bicarbonate and supplemented with 5% heat inactivated human serum and 0.5% albumax. […] On the day of assay set up, a blood smear of the parasite culture was Giemsa stained and counted. The parasitemia was adjusted to 0.7% rings and the haematocrit was diluted to 2% in RPMI-Hepes media buffered with sodium bicarbonate and supplemented with 5% heat inactivated human serum and 0.5% albumax. 30 μl of diluted parasites are then added into 10 μl of media+compound in pre-prepared Greiner TC assay plates. Parasite assay plates were placed in gassed humidified boxes in single layer and allowed to incubate at 37° C. for 72 hours. After 72 hours growth, assay plates were sealed with parafilm and frozen flat, in single file at −80° C. overnight. On the following day, assay plates were allowed to thaw at room temperature for 4 hours to which an LDH assay was performed to measure parasite growth.

[1] = Table 4, read-out: EC50 (Table 4)

| SMILES | EC50 (Table 3, read-out: EC50) [nM] | EC50 [1] [nM] |
| --- | --- | --- |
| CC(C)C1(C)CC(NC(=O)[C@H]2C[C@@H]2CN2C(=N)NC(C)(C)CC2=O)c2ccccc2O1 (single isomer, unassigned) [Example 79C] | 289 | – |
| COCC[C@H]([C@H]1C[C@@H]1C(=O)NC1CC(C)(C(C)C)Oc2ccccc21)N1C(=N)NC(C)(C)CC1=O (single isomer, unassigned) [Example 80A] | 9.4 | – |
| COCC[C@H]([C@H]1C[C@@H]1C(=O)NC1CC(C)(C(C)C)Oc2ccccc21)N1C(=N)NC(C)(C)CC1=O (single isomer, unassigned) [Example 80B] | 6.6 | – |
| COCC[C@H]([C@H]1C[C@@H]1C(=O)NC1CC(C)(C(C)C)Oc2ccccc21)N1C(=N)NC(C)(C)CC1=O (single isomer, unassigned) [Example 80C] | 14 | – |
| COCC[C@H]([C@H]1C[C@@H]1C(=O)NC1CC(C)(C(C)C)Oc2ccccc21)N1C(=N)NC(C)(C)CC1=O (single isomer, unassigned) [Example 80D] | 21 | – |
| CC(C)C1(C)CC(NC(=O)[C@H]2C[C@@H]2[C@@H](c2cccnc2)N2C(=N)NC(C)(C)CC2=O)c2ccccc2O1 (single isomer, unassigned) [Example 81A] | 2.7 | – |
| CC(C)C1(C)CC(NC(=O)[C@H]2C[C@@H]2[C@@H](c2cccnc2)N2C(=N)NC(C)(C)CC2=O)c2ccccc2O1 (single isomer, unassigned) [Example 81B] | 1 | – |
| CC(C)C1(C)CC(NC(=O)[C@H]2C[C@@H]2[C@@H](c2cccnc2)N2C(=N)NC(C)(C)CC2=O)c2ccccc2O1 (single isomer, unassigned) [Example 81C] | 0.9 | – |
| CC(C)C1(C)CC(NC(=O)[C@H]2C[C@@H]2[C@@H](c2cccnc2)N2C(=N)NC(C)(C)CC2=O)c2ccccc2O1 (single isomer, unassigned) [Example 81D] | 1.3 | – |
| COCC[C@H]([C@H]1C[C@@H]1C(=O)NC1CC(C)(COC)Oc2ccccc21)N1C(=N)NC(C)(C)CC1=O (single isomer, unassigned) [Example 82A] | 24.4 | – |
| COCC[C@H]([C@H]1C[C@@H]1C(=O)NC1CC(C)(COC)Oc2ccccc21)N1C(=N)NC(C)(C)CC1=O (single isomer, unassigned) [Example 82B] | 57 | – |
| COCC[C@H]([C@H]1C[C@@H]1C(=O)NC1CC(C)(COC)Oc2ccccc21)N1C(=N)NC(C)(C)CC1=O (single isomer, unassigned) [Example 82C] | 53 | – |
| COCC[C@H]([C@H]1C[C@@H]1C(=O)NC1CC(C)(COC)Oc2ccccc21)N1C(=N)NC(C)(C)CC1=O (single isomer, unassigned) [Example 82D] | 27 | – |
| CC1(C)CC(=O)N([C@H](c2cccnc2)[C@H]2C[C@@H]2C(=O)NC2CC(C)(C)Oc3ccc(F)cc32)C(=N)N1 (single isomer, unassigned) [Example 98A] | 0.9 | – |
| CC1(C)CC(=O)N([C@H](c2cccnc2)[C@H]2C[C@@H]2C(=O)NC2CC(C)(C)Oc3ccc(F)cc32)C(=N)N1 (single isomer, unassigned) [Example 98B] | 2.2 | – |
| CC[C@]1(C)CC(=O)N(C(c2cncc(F)c2)[C@H]2C[C@@H]2C(=O)N[C@@H]2c3ccccc3OC(C)(C)C2(C)O)C(=N)N1 (single isomer, unassigned) [Example 103A] | 29 | – |
| CC[C@]1(C)CC(=O)N(C(c2cncc(F)c2)[C@H]2C[C@@H]2C(=O)N[C@@H]2c3ccccc3OC(C)(C)C2(C)O)C(=N)N1 (single isomer, unassigned) [Example 103B] | 2.1 | – |
| CC[C@]1(C)CC(=O)N(C(c2cncc(F)c2)[C@H]2C[C@@H]2C(=O)NC2c3ccccc3OC(C(F)(F)F)C2O)C(=N)N1 (single isomer, unassigned) [Example 104A] | 4 | – |
| CC[C@]1(C)CC(=O)N(C(c2cncc(F)c2)[C@H]2C[C@@H]2C(=O)NC2c3ccccc3OC(C(F)(F)F)C2O)C(=N)N1 (single isomer, unassigned) [Example 104B] | 22 | – |
| CCC1(C)CC(NC(=O)[C@H]2C[C@@H]2[C@@H](c2cccnc2)N2C(=N)NC(C)(C)CC2=O)c2ccccc2O1 (single isomer, unassigned) [Example 105A] | 0.9 | – |
| CCC1(C)CC(NC(=O)[C@H]2C[C@@H]2[C@@H](c2cccnc2)N2C(=N)NC(C)(C)CC2=O)c2ccccc2O1 (single isomer, unassigned) [Example 105B] | 1.8 | – |
| CCC1(C)CC(NC(=O)[C@H]2C[C@@H]2[C@@H](c2cccnc2)N2C(=N)NC(C)(C)CC2=O)c2ccccc2O1 (single isomer, unassigned) [Example 105C] | 0.8 | – |

| SMILES | EC50 (Table 3, read-out: EC50) [nM] | EC50 [1] [nM] |
| --- | --- | --- |
| CCC1(C)CC(NC(=O)[C@H]2C[C@@H]2[C@@H](c2cccnc2)N2C(=N)NC(C)(C)CC2=O)c2ccccc2O1 (single isomer, unassigned) [Example 105D] | 0.9 | – |
| COCC1(C)CC(NC(=O)[C@H]2C[C@@H]2[C@@H](c2cccnc2)N2C(=N)NC(C)(C)CC2=O)c2ccccc2O1 (single isomer, unassigned) [Example 108A] | 70 | – |
| COCC1(C)CC(NC(=O)[C@H]2C[C@@H]2[C@@H](c2cccnc2)N2C(=N)NC(C)(C)CC2=O)c2ccccc2O1 (single isomer, unassigned) [Example 108B] | 3.7 | – |
| COCC1(C)CC(NC(=O)[C@H]2C[C@@H]2[C@@H](c2cccnc2)N2C(=N)NC(C)(C)CC2=O)c2ccccc2O1 (single isomer, unassigned) [Example 108C] | 6 | – |
| COCC1(C)CC(NC(=O)[C@H]2C[C@@H]2[C@@H](c2cccnc2)N2C(=N)NC(C)(C)CC2=O)c2ccccc2O1 (single isomer, unassigned) [Example 108D] | 8.5 | – |
| CC1(C)CC(=O)N([C@H](c2cccnc2)[C@H]2C[C@@H]2C(=O)NC2CC(C)(C)Oc3ccc(C(F)(F)F)cc32)C(=N)N1 (single isomer, unassigned) [Example 109A] | 2.3 | – |
| CC1(C)CC(=O)N([C@H](c2cccnc2)[C@H]2C[C@@H]2C(=O)NC2CC(C)(C)Oc3ccc(C(F)(F)F)cc32)C(=N)N1 (single isomer, unassigned) [Example 109B] | 1 | – |
| CC[C@]1(C)CC(=O)N([C@H](CCOC)[C@H]2C[C@@H]2C(=O)NC2CC(C)(C)Oc3ccc(C(F)(F)F)cc32)C(=N)N1 (single isomer, unassigned) [Example 127A] | 1.1 | – |
| CC[C@]1(C)CC(=O)N([C@H](CCOC)[C@H]2C[C@@H]2C(=O)NC2CC(C)(C)Oc3ccc(C(F)(F)F)cc32)C(=N)N1 (single isomer, unassigned) [Example 127B] | 2.6 | – |
| CC[C@]1(C)CC(=O)N([C@H](CCOC)[C@H]2C[C@@H]2C(=O)NC2CC(C)(C)Oc3ccc(F)cc32)C(=N)N1 (single isomer, unassigned) [Example 130A] | 0.9 | – |
| CC[C@]1(C)CC(=O)N([C@H](CCOC)[C@H]2C[C@@H]2C(=O)NC2CC(C)(C)Oc3ccc(F)cc32)C(=N)N1 (single isomer, unassigned) [Example 130B] | 2.4 | – |
| CCC1C[C@H](NC(=O)[C@H]2C[C@@H]2CN2C(=N)NC(C)(C)CC2=O)c2ccccc2O1 (single isomer, unassigned) [Example 133A] | 210 | – |
| CCC1C[C@H](NC(=O)[C@H]2C[C@@H]2CN2C(=N)NC(C)(C)CC2=O)c2ccccc2O1 (single isomer, unassigned) [Example 133B] | 100 | – |
| COCC[C@H]([C@H]1C[C@@H]1C(=O)NC1CC(C)(C)Oc2cc(OC(F)(F)F)ccc21)N1C(=N)NC(C)(C)CC1=O (single isomer, unassigned) [Example 134A] | 71 | – |
| COCC[C@H]([C@H]1C[C@@H]1C(=O)NC1CC(C)(C)Oc2cc(OC(F)(F)F)ccc21)N1C(=N)NC(C)(C)CC1=O (single isomer, unassigned) [Example 134B] | 25 | – |
| CCC1(CC)CC(=O)N(C(CC(C)OC)[C@H]2C[C@@H]2C(=O)N[C@H]2CC(C)(C)Oc3ccccc32)C(=N)N1 (single isomer, unassigned) [Example 142A] | – | 1.9 |
| CCC1(CC)CC(=O)N(C(CC(C)OC)[C@H]2C[C@@H]2C(=O)N[C@H]2CC(C)(C)Oc3ccccc32)C(=N)N1 (single isomer, unassigned) [Example 142B] | – | 0.7 |
| CCC1(CC)CC(=O)N(C(CC(C)OC)[C@H]2C[C@@H]2C(=O)N[C@H]2CC(C)(C)Oc3ccccc32)C(=N)N1 (single isomer, unassigned) [Example 142C] | – | 205 |
| CCC1(CC)CC(=O)N(C(CC(C)OC)[C@H]2C[C@@H]2C(=O)N[C@H]2CC(C)(C)Oc3ccccc32)C(=N)N1 (single isomer, unassigned) [Example 142D] | – | 115 |
| CCC1(CC)CC(=O)N(C(CC(C)OC)[C@H]2C[C@@H]2C(=O)N[C@@H]2CC(C)(C)Oc3ccccc32)C(=N)N1 (single isomer, unassigned) [Example 143A] | – | 4.6 |
| CCC1(CC)CC(=O)N(C(CC(C)OC)[C@H]2C[C@@H]2C(=O)N[C@@H]2CC(C)(C)Oc3ccccc32)C(=N)N1 (single isomer, unassigned) [Example 143B] | – | 2.4 |
| CCC1(CC)CC(=O)N(C(CC(C)OC)[C@H]2C[C@@H]2C(=O)N[C@@H]2CC(C)(C)Oc3ccccc32)C(=N)N1 (single isomer, unassigned) [Example 143C] | – | 57.9 |
